Assay results: PMC8645336, “Benchmarking a highly selective USP30 inhibitor for enhancement of mitophagy and pexophagy” (Life Science Alliance, 2021)

Key:
Assay in all cases: biochemical
Design in all cases: Ubiquigent DUB profiler selectivity panel, remaining enzyme activity as % of control
Settings in all cases: read-out: % of control remaining
[1] = target: USP11 (Homo sapiens, UniProt P51784)
Summary of the method: (§1)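 CMPD-39 selectivity was profiled at 1-100 μM across >40 DUBs. Cellular engagement used 2 h CMPD-39 pretreatment, then HA-Ub-PA probe for 10 min at 37°C, with USP30 band shift on immunoblot. TOMM20 ubiquitylation was blotted in YFP-PRKN hTERT-RPE1 cells after 1 h antimycin A/oligomycin A (1 μM each).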

[2] = target: T1, JOSD2 (Homo sapiens, UniProt Q8TAC2)
T1 sequence (Q8TAC2 1-188): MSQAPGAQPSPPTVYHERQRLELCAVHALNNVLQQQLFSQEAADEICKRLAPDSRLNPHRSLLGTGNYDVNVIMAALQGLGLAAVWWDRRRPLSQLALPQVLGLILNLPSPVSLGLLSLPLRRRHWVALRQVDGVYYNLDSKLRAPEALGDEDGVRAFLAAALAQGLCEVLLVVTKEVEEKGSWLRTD
Summary of the method: as §1

[3] = target: T2, OTUD5 (p177S) (Homo sapiens, UniProt Q96G74)
T2 construct: phosphorylated S177
T2 sequence (Q96G74 1-571): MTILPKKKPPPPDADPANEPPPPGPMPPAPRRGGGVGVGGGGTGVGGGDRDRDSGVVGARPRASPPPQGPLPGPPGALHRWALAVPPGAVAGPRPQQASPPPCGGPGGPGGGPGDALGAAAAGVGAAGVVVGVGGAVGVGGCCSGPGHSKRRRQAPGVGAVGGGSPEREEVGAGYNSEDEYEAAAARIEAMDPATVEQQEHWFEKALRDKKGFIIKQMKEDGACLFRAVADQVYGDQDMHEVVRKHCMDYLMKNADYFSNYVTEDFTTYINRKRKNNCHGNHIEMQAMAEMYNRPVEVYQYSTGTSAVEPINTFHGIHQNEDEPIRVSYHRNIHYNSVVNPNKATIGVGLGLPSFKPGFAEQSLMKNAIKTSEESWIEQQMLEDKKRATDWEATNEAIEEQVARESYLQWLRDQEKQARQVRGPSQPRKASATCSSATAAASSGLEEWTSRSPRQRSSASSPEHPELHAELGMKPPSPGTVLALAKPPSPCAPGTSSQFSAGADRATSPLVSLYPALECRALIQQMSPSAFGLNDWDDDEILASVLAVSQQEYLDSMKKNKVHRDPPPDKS
Summary of the method: as §1

[4] = target: T3, Ataxin3L (Homo sapiens, UniProt Q9H3M9)
T3 construct: gene ATXN3L
T3 sequence (Q9H3M9 1-355): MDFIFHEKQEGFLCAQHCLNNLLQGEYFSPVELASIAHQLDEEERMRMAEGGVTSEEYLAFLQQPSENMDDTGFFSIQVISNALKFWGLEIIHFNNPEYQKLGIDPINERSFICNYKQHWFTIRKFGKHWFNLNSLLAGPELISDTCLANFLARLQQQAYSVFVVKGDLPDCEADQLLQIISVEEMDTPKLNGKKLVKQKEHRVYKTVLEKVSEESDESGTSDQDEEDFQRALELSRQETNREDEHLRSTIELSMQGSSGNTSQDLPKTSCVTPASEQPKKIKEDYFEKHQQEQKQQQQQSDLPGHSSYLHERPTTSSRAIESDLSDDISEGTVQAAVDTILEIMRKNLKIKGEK
Summary of the method: as §1

[5] = target: T4, AMSH-LP (+Zinc) (Homo sapiens, UniProt Q96FJ0)
T4 construct: gene STAMBPL1; +Zinc
T4 sequence (Q96FJ0 1-436): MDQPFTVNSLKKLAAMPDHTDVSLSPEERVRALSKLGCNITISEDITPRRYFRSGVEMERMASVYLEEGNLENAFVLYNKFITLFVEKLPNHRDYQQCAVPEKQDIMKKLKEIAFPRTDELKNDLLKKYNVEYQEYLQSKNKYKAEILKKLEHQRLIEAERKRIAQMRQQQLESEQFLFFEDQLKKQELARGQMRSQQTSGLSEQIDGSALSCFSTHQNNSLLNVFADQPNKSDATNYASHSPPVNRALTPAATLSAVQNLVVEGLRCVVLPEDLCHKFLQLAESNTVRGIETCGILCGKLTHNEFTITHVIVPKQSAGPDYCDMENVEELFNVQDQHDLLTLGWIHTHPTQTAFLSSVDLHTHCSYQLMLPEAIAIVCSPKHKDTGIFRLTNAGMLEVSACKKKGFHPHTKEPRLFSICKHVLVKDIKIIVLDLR
Summary of the method: as §1

Sequence of USP11 (P51784 whole entry): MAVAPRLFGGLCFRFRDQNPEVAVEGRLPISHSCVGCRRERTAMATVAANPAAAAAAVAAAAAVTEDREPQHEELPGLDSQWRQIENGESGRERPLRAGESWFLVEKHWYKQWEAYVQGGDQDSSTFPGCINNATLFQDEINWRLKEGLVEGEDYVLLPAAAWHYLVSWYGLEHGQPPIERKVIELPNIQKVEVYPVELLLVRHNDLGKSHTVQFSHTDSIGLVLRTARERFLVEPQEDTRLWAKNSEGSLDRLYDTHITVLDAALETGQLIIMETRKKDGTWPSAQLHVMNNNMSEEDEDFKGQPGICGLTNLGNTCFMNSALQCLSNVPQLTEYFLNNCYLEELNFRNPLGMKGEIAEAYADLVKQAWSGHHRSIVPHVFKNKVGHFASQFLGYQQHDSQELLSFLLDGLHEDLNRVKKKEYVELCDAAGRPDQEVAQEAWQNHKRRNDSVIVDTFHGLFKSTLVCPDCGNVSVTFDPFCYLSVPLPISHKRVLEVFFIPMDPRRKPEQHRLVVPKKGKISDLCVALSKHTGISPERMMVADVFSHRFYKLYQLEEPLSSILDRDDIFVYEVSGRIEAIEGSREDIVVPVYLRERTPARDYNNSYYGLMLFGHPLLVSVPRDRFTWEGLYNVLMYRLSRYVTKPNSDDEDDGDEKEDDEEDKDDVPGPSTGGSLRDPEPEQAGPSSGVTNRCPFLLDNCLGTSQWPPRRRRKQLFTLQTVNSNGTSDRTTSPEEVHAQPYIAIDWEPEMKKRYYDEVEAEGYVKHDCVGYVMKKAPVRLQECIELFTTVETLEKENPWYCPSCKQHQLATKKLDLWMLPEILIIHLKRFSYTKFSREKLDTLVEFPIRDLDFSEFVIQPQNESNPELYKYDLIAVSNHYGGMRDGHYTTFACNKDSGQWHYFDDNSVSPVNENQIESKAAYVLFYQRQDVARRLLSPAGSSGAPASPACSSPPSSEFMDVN

remaining activity at 1 µM [1]: 103%
remaining activity at 10 µM [1]: 98.4%
remaining activity at 100 µM [1]: 97.2%
remaining activity at 1 µM [2]: 105%
remaining activity at 10 µM [2]: 90.8%
remaining activity at 100 µM [2]: 94.3%
remaining activity at 1 µM [3]: 108%
remaining activity at 10 µM [3]: 106%
remaining activity at 100 µM [3]: 89.9%
remaining activity at 1 µM [5]: 106%
remaining activity at 10 µM [5]: 101%
remaining activity at 100 µM [5]: 97.8%
SMILES: CC(C)(C)NS(=O)(=O)c1ccc(NC(=O)[C@H](Cc2ccccc2)NC(=O)c2ccc(F)cc2)cc1 [compound 39, CMPD-39]
remaining activity at 1 µM [4]: 103%
remaining activity at 10 µM [4]: 101%
remaining activity at 100 µM [4]: 102%
